What was measured:
HSP60 [1] = assay: Location variation of HSP60 by cell staining; type: cell-based
Text: Also, location variation of HSP60 was identified by cell staining.

HSP60 [2] = assay: Release amounts of HSP60 in HEI-OC1 cells by ELISA; type: cell-based
Procedure: (§1) It is generally known that HSP60 in mitochondria is released outside of the cells to bind to TLR2 or TLR4, thereby inducing strong inflammation. Accordingly, the release amounts of HSP60 in mice and HEI-OC1 cells were measured by the ELISA method.

[3] = tested on: outer and inner hair cells of Corti's organ explants; assay: Explants of the Corti's organ, shape and arrangement of hair cells; type: cell-based
[4] = tested on: TNF-α, IL-6, HSP60, TLR2 and TLR4 expression in HEI-OC1 cells; assay: Expression of inflammation mediators by the PCR method; type: cell-based
HSP60 [5] = assay: Release amounts of HSP60 in mice by ELISA; type: in vivo
Procedure: as §1

HMGB1 [6] = assay: Extracellular release of HMGB1 by ELISA; type: cell-based
Text: HMGB1 is, together with HSP60, known as an important mediator for the activation of TLRs and the resulting inflammation. Accordingly, the extracellular release of HMGB1 was identified by the ELISA method.

mitochondria = assay: Shape variations of mitochondria by transmission electron microscope (TEM); type: in vivo; settings: 24-month-old mice, compared to 2-month-old lab animals
Text: Also, in order to identify inhibition of age-related mitochondria damage by β-lapachone, the shape variations of mitochondria were detected for three groups of 24-month-old lab animals using a transmission electron microscope (TEM).

[7] = tested on: C57BL/6 mice (age-related hearing loss model); assay: Auditory brainstem response (ABR) threshold in animal model with age-related presbycusis; type: in vivo; settings: for ABR threshold: feed containing 0.06% β-lapachone; for recovery of ABR thresholds in comparison with the control group: p<0.05
Procedure: C57BL/6 mice which are well known as a age-related hearing loss model were used for this experiment. 12-month-old C57BL/6 mice were directly purchased from Central Lab. Animal Inc. (Seoul, Korea), and bred up to 24 months of age with measuring hearing loss every 3 months. All mice used in this experiment were bred in an axenic (germfree) animal facility maintaining constant temperature (22 to 26° C.) and humidity (55 to 60%).
All experiments were conducted for groups divided into a control group freely providing normal feed, caloric restriction (CR) group limiting dietary to 70%, and βL group providing feed containing 0.06% β-lapachone (compound 1).
In order to evaluate auditory brainstem response, all lab animals were intramuscularly injected with a mixture of xylazine (5 mg/kg) and ketamine for anesthesia and the variation of auditory brainstem response threshold was measured using a TDT system (Tucker-Davis Technologies, FL, USA) in a soundproof room.
An insertable ear tip (3.5 mm, Nicolet Biomedical, Inc.) was placed in the external auditory meatus, electrodes were placed at scalp vertex (active electrode), the mastoid region of the ear of interest (reference electrode) and the mastoid region of the opposite ear (ground electrode), and the threshold of ABS was measured by starting with 90 dB HL intensity and then sequentially decreasing the intensity by 10 dB at 4, 8, 16 and 32 kHz.
There was no arousal response and death due to respiratory depression during the ABR test. The comparison of the ABR thresholds between groups was conducted by one-way analysis of variance (ANOVA) and P value of 0.05 or less was regarded as being significant.

HMGB1 [8] = assay: HMGB1 expression in inner ear by tissue staining; type: in vivo; settings: 21-month-old mice, compared to control and CR groups
Procedure: In order to identify an effect of β-lapachone against the expression of HMGB1 which is known to be important for the damage and shape variation of mitochondria, a tissue staining was conducted.

[9] = tested on: HEI-OC1 auditory hair cell line; type: cell-based; settings: β-lapachone 30 minutes before treating with cisplatin, p<0.05
[10] = tested on: outer and inner hair cells of the inner ear; assay: TUNEL identification of hair cell damage in inner ear; type: in vivo; settings: 24-month-old mice, βL group vs control group
Text: In order to identify damage of hair cells, the inner ears of the lab animals were enucleated and subject to terminal deoxynucleotidyl transferase-mediated dUTP nick end-labeling (TUNEL) from the top of cochlea to middle circular part thereof, followed by analyzing TUNEL positive cells using a fluorescence microscope.

6-week-old C57BL/6 mice = type: in vivo; settings: β-lapachone (10, 20 and 40 mg/kg/day) and cisplatin for 4 days, p<0.05
Procedure: 6-week-old C57BL/6 mice were bred in an axenic (germfree) animal facility maintaining constant temperature (22 to 26° C.) and humidity (55 to 60%).
The comparison of the ABR thresholds between groups was conducted by one-way analysis of variance (ANOVA) and P value of 0.05 or less was regarded as being significant.

[11] = HEI-OC1 cells treated with cisplatin

N.N.[Cl][Pt][Cl] [cisplatin, reference compound]
location of HSP60 (HSP60 [1]; cells treated with cisplatin): HSP60 was almost expressed in cytoplasm | release amounts of HSP60 (HSP60 [2]; HEI-OC1 cells treated with cisplatin, p<0.05): significantly increased release amounts of HSP60 | shape and arrangement of the outer and inner hair cells ([3]; treated with cisplatin): shape and arrangement of the outer and inner hair cells were changed | expression of inflammation mediators (TNF-α, IL-6, HSP60, TLR2, TLR4) [4, 11]: increased expression of inflammation-inducing cytokines such as TNF-α, IL-6 and HSP60 and inflammation mediators such as TLR2 and TLR4 | release amounts of HSP60 (HSP60 [5]; mice treated with cisplatin, p<0.05): significantly increased release amounts of HSP60 | extracellular release of HMGB1 (HMGB1 [6]; [11]): extracellular release of excessive amounts of HMGB1

CC1(C)CCC2=C(O1)c1ccccc1C(=O)C2=O [β-lapachone]
number and shape of mitochondria (TEM) (mitochondria): number and shape of mitochondria similar to the 2-month-old lab animals | location of HSP60 (HSP60 [1]; cells treated with both β-lapachone and cisplatin): HSP60 was expressed in only mitochondria like the normal cells | ABR threshold ([7]; 15-month-old mice, 4 kHz): 63.33±11.55 dB SPL | ABR threshold ([7]; 15-month-old mice, 8 kHz): 33.33±15.28 dB SPL | ABR threshold ([7]; 15-month-old mice, 16 kHz): 46.67±5.77 dB SPL | ABR threshold ([7]; 15-month-old mice, 32 kHz): 53.33±5.77 dB SPL | ABR threshold ([7]; 18-month-old mice, 4 kHz): 80±0 dB SPL | ABR threshold ([7]; 18-month-old mice, 8 kHz): 46.67±11.55 dB SPL | ABR threshold ([7]; 18-month-old mice, 16 kHz): 56.67±11.55 dB SPL | ABR threshold ([7]; 18-month-old mice, 32 kHz): 66.67±11.55 dB SPL | recovery of ABR thresholds in comparison with the control group ([7]; 21-month-old mice, 4, 8, 16 and 32 kHz): statistically significant recovery at regions except for 16 kHz | ABR threshold ([7]; 21-month-old mice, 4 kHz): 56.67±5.77 dB SPL | ABR threshold ([7]; 21-month-old mice, 8 kHz): 46.67±5.77 dB SPL | ABR threshold ([7]; 21-month-old mice, 16 kHz): 53.33±15.28 dB SPL | ABR threshold ([7]; 21-month-old mice, 32 kHz): 46.67±5.77 dB SPL | recovery of ABR thresholds in comparison with the control group ([7]; 24-month-old mice, 4, 8, 16 and 32 kHz): statistically significant recovery at all regions | recovery of ABR threshold in comparison with the control group ([7]; 24-month-old mice, at 8 to 32 kHz except for 4 kHz): no less than 30 dB SPL | ABR threshold ([7]; 24-month-old mice, 4 kHz): 73.33±5.77 dB SPL | ABR threshold ([7]; 24-month-old mice, 8 kHz): 43.33±5.77 dB SPL | ABR threshold ([7]; 24-month-old mice, 16 kHz): 53.33±5.77 dB SPL | ABR threshold ([7]; 24-month-old mice, 32 kHz): 53.33±11.55 dB SPL | release amounts of HSP60 (HSP60 [2]; HEI-OC1 cells treated with both β-lapachone and cisplatin): decreased release amounts of HSP60 in a β-lapachone concentration-dependent manner | shape and arrangement of the auditory hair cells ([3]; treated with both β-lapachone and cisplatin): maintained the shape and arrangement of the auditory hair cells similar to the control group | expression of inflammation mediators by cisplatin (TNF-α, IL-6, HSP60, TLR2, TLR4) ([4]; HEI-OC1 cells, β-lapachone 30 minutes before cisplatin): inhibited by β-lapachone in a concentration-dependent manner | expression of HMGB1 in the inner ear (HMGB1 [8]): significantly decreased expression of HMGB1 | protection from apoptosis by cisplatin (cell viability, MTT) [9]: protected the apoptosis by cisplatin in a concentration-dependent manner | age-related apoptosis (TUNEL positive cells) in inner ear [10]: significantly inhibited the age-related apoptosis in the whole inner ear | release amounts of HSP60 (HSP60 [5]; mice treated with both β-lapachone and cisplatin): decreased release amounts of HSP60 in a β-lapachone concentration-dependent manner | recovery of ABR thresholds as compared to the CDDP group (6-week-old C57BL/6 mice): statistically significant recovery at all regions | extracellular release amounts of HMGB1 (HMGB1 [6]; HEI-OC1 cells treated with cisplatin and β-lapachone, p<0.05): the release amounts decreased in a β-lapachone concentration-dependent manner

From patent US20120289577A1, “COMPOSITION FOR TREATING OR PREVENTING HEARING LOSS COMPRISING NAPHTHOQUINONE-BASED COMPOUNDS” (KT&G LIFE SCIENCES CORPORATION, priority 2009, published 2012)
